The target in the assay is T1, septin-2 (Homo sapiens, UniProt Q15019).
T1 sequence (Q15019 1-361): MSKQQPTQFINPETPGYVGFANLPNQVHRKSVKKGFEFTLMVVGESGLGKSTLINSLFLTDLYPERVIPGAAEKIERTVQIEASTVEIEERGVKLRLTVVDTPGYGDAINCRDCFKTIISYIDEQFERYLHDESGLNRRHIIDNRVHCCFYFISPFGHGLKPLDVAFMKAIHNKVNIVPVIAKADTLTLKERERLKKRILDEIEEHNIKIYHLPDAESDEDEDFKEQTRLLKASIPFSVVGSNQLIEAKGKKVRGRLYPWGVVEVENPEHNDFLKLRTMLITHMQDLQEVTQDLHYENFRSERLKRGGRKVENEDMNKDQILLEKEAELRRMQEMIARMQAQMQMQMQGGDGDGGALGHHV
Kind of assay: Confocal analysis of septin-2 filament structure. The assay is classed as cell-based. The settings on record: 48 hours. An excerpt:
Cell Cycle Protein Expression. Cell Cycle Antibody Array (FullMoon BioSystems Inc, catalogue number: ACC:058), a high throughput ELISA based antibody array, designed for qualitative/semi-quantitative protein expression profiling was employed to investigate the protein changes after drug treatment. PANC-1 cells were lysed in buffer containing protease and phosphatase inhibitors (Cell Signaling, catalog number: 9803S). Total protein content was quantified by Bradford assay and equal amounts of proteins were analyzed in duplicate with arrays containing 4 to 6 spots for each of 60 probes (ACC058, Cell Cycle Antibody Array; Full Moon Biosystems, Sunnyvale, Calif.), according to manufacturer's instructions. After background correction, mean signal intensities were measured using FullMoon Inc's imaging services. Protein expressions in both the naïve and 328 treatment group was normalized to GAPDH signals. Confocal Analysis of Septin Disarrangement. To determine the impact of UR214-9 treatment on Septin-2 structure in cells, PANC-1 or JIMT-1 cells were seeded on glass slides and allowed to adhere overnight. The media was replaced with complete DMEM media supplemented with DMSO or UR214-9 (1 μM and 70 nM) and cells were incubated for 48 hours. Media was replaced again with new complete medium and fixed with neutral buffered formalin for 15 minutes at […]. Media was removed and cells were washed repeatedly with PBST (5×5 mL). The cells were stained with Septin-2 antibody (Sigma Aldrich, catalog number: HPA018481) in PSB overnight at […]. Media was removed again and cells were washed with 2×5 mL PBST. The cells were stained with fluorescence linked secondary antibody for 1 hr under dark. Slides were washed repeatedly in dark for 7×5 mL PBST, mounting medium containing DAPI (Vector labs) were applied and covered with glass slide. The slides were stored in dark at […] till analysis. Confocal images were obtained and processed essentially as published earlier (see Moore, R. G., Hill, E. K., Horan, T., Yano, N., Kim, K., MacLaughlan, S., Lambert-Messerlian, G., Tseng, Y. D., Padbury, J. F., Miller, M. C., Lange, T. S., Singh, R. K. Sci Rep. 4, 3574, 2014). Pancreatic tumor microarray (US Biomax, cat no: T142a) were deparaffinized, processed and stained with Septin-2 antibody (Sigma Aldrich, cat number: HPA018481) overnight, washed with PBST and incubated with source matched secondary (FITC) for an hour. Slide was washed in PBST (5×10 mL) for five minutes each. DAPI containing mounting media was applied and covered with a glass slide. Confocal images were acquired with Nikon C1si confocal microscope (Nikon Inc. Mellville N.Y.) using diode lasers 402, 488 and 561. […] Five cells were outlined and analyzed per field. […]

The structures appear in SMILES notation.

Experimental findings from patent US12433876B2, “Septin inhibitors for treatment of cancers” (UNIVERSITY OF ROCHESTER, priority 2019, dated 2025) are described below.

For `O=C(Nc1cc(Cl)nc(Cl)c1)Nc1cccc(SC(F)(F)F)c1F` [UR214-9], the septin-2 needles entry runs as follows: (JIMT-1, 1 μM) “structural disruptions and relocation to nuclear periphery”; (PANC-1, 1 uM) “disarranged and translocated at the cell-surface”. The septin-2 filaments entry (SKOV-3, 1 μM) is “complete disruption of septin-2 filaments”.
Consider `O=C(Nc1ccccc1)Nc1ccnc(Cl)c1` [FCF, N-(2-chloro-4-pyridyl)-N′-phenylurea, reference compound], for which, under “BXPC-3 cells, 60 μM”, the septin-2 filaments result is reported as “strengthen the septin-2 filaments”.
